From patent US20260159512A1, “BCAT2 INHIBITORS” (AGIOS PHARMACEUTICALS, INC., priority 2021, published 2026)
pIC50: −log10 of the molar value.

Experiments:
Details in all cases: average where tested multiple times
BCAT2 [1] = target: T1, BCAT2 (Homo sapiens, UniProt O15382); test: BCAT2 in vitro cell inhibition using engineered A549 cells (KMV cell assay, 13C6-KMV by LC-MS/MS); format: cell-based; set-up: The result was an engineered A549 cell line that expressed endogenous BCAT2; endogenous in cells; host or cells: A549 cells with MUT and BCAT1 knocked out by CRISPR/CAS9; key to BCAT2 Cell Inhibition: A: less than or equal to 0.100 μM; B: greater than 0.100 and less than or equal to 0.500 μM; C: greater than 0.500 and less than or equal to 1.000 μM; d: greater than 1.000 μM; E: no fit
T1 sequence (O15382 28-392): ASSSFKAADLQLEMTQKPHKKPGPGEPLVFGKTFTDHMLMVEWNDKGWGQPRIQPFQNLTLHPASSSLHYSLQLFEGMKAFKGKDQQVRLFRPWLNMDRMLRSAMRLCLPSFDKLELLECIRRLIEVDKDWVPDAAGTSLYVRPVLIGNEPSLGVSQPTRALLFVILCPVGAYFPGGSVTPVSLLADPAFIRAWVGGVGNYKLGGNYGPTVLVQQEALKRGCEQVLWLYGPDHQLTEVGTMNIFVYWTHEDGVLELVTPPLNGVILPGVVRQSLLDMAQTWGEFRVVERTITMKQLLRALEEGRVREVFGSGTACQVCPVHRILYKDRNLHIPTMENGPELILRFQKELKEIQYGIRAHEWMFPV

BCAT2 [2] = target: T1, BCAT2; test: BCAT2 in vitro enzyme inhibition assay (resazurin/diaphorase-coupled fluorescence); format: biochemical
Procedure, shortened: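 Coupled fluorescence readout: glutamate formed from L-leucine/α-ketoglutarate transamination drives GDH/NAD/diaphorase reduction of resazurin (Ex 540/Em 590). Human BCAT2 was first exposed 1 h at room temperature to compound, top final 100 μM in 3-fold, 10-point series; substrate reaction ran 1 h before SDS quench, in technical duplicate with DMSO max and enzyme-free min controls.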

hBCAT1 = target: T2, hBCAT1 (Homo sapiens, UniProt P54687); test: BCAT1 in vitro enzyme inhibition assay (resazurin/diaphorase-coupled fluorescence); format: biochemical
T2 sequence (P54687 1-386): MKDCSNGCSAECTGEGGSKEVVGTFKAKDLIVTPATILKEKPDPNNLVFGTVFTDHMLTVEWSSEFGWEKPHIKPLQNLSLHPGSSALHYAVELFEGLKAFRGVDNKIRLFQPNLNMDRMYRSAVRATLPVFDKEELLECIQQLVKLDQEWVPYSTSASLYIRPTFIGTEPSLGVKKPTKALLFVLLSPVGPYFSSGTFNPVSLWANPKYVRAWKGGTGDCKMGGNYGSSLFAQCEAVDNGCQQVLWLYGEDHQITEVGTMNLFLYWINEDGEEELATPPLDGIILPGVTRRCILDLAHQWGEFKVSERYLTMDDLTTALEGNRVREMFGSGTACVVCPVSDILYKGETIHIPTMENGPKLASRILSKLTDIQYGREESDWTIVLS
Procedure, shortened: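 Ten-point, 3-fold compound series (top final 100 μM, delivered 1:50 from 50× DMSO stocks) tested against hBCAT1. Inhibition detected via diaphorase-coupled resazurin fluorescence, duplicate wells, with values from repeated runs averaged.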

pIC50 (BCAT2 [1]) | pIC50 (BCAT2 [2]) | pIC50 (hBCAT1) | BCAT2 Cell Inhibition (BCAT2 [1]) | SMILES
6.30 to 7.00 | ≥ 7.00 | 6.00 to 6.30 |  | CC(C)Cc1nc2cnc(-c3ncn(C)n3)cc2n1[C@@H]1CCC[C@H](NC(=O)c2ncc(Cl)s2)C1 [Example 358, 5-chloro-N-((1S,3R)-3-(2-isobutyl-6-(1-methyl-1H-1,2,4-triazol-3-yl)-1H-imidazo[4,5-c]pyridin-1-yl)cyclohexyl)thiazole-2-carboxamide]
≥ 7.00 | ≥ 7.00 | > 6.30 |  | CC(C)Cc1nc2cnc(-c3nc[nH]n3)cc2n1[C@@H]1CCCC[C@H](NC(=O)c2ncc(Cl)s2)C1 [Example 374, 5-chloro-N-((1S,3R)-3-(2-isobutyl-6-(1H-1,2,4-triazol-3-yl)-1H-imidazo[4,5-c]pyridin-1-yl)cycloheptyl)thiazole-2-carboxamide]
≥ 7.00 | ≥ 7.00 | > 6.30 |  | O=C(N[C@H]1CCC[C@@H](n2c(-c3ncccc3F)nc3cnc(-n4nccn4)cc32)C1)c1ccc(Br)s1 [Example 13, 5-bromo-N-((1S,3R)-3-(2-(3-fluoropyridin-2-yl)-6-(2H-1,2,3-triazol-2-yl)-1H-imidazo[4,5-c]pyridin-1-yl)cyclohexyl)thiophene-2-carboxamide]
≥ 7.00 | ≥ 7.00 | > 6.30 |  | O=C(N[C@H]1CCC[C@@H](n2c(-c3ccccc3F)nc3cnc(-c4ccn[nH]4)cc32)[C@@H]1O)c1ncc(Cl)s1 [Example 240, 5-chloro-N-((1S,2R,3R)-3-(2-(2-fluorophenyl)-6-(1H-pyrazol-5-yl)-1H-imidazo[4,5-c]pyridin-1-yl)-2-hydroxycyclohexyl)thiazole-2-carboxamide]
≥ 7.00 | ≥ 7.00 | > 6.30 |  | Cc1coc(-c2cc3c(cn2)nc(-c2ccccc2F)n3[C@@H]2CCC[C@H](NC(=O)c3ncc(Cl)s3)[C@H]2O)n1 [Example 238, 5-chloro-N-((1S,2R,3R)-3-(2-(2-fluorophenyl)-6-(4-methyloxazol-2-yl)-1H-imidazo[4,5-c]pyridin-1-yl)-2-hydroxycyclohexyl)thiazole-2-carboxamide]
6.30 to 7.00 | 6.30 to 7.00 | > 6.30 |  | O=C(N[C@@H]1C[C@@H](O)C[C@H](n2c(-c3ccccc3F)nc3cnc(-n4nccn4)cc32)C1)c1ncc(Cl)s1 (single isomer, unassigned) [Example 111]
6.30 to 7.00 | ≥ 7.00 | 6.00 to 6.30 |  | O=C(N[C@H]1CCC[C@@H](n2c(C3CCCCO3)nc3cnc(-c4nc[nH]n4)cc32)C1)c1ncc(Cl)s1 (single isomer, unassigned) [Example 89]
6.30 to 7.00 | ≥ 7.00 | > 6.30 |  | CC(=O)N1CC(NC(=O)c2ncc(C(F)F)s2)CC(n2c(-c3ncccc3F)nc3cnc(-n4nccn4)cc32)C1 (stereo not drawn) [Example 119, N-(1-acetyl-5-(2-(3-fluoropyridin-2-yl)-6-(2H-1,2,3-triazol-2-yl)-1H-imidazo[4,5-c]pyridin-1-yl)piperidin-3-yl)-5-(difluoromethyl)thiazole-2-carboxamide]
6.30 to 7.00 | ≥ 7.00 | > 6.30 |  | CC(C)Cc1nc2cnc(-c3ncccn3)cc2n1C1CCCC(NC(=O)c2ncc(Cl)s2)C1O (stereo not drawn) [Example 383, 5-chloro-N-(2-hydroxy-3-(2-isobutyl-6-(pyrimidin-2-yl)-1H-imidazo[4,5-c]pyridin-1-yl)cyclohexyl)thiazole-2-carboxamide]
≥ 7.00 | ≥ 7.00 | > 6.30 |  | CC(C)Cc1nc2cnc(-n3nccn3)cc2n1[C@@H]1C[C@@H](O)C[C@H](NC(=O)c2ccc(Cl)s2)C1 (single isomer, unassigned) [Example 395]
6.30 to 7.00 | ≥ 7.00 | 5.30 to 6.00 |  | CC(C)(C)Cc1nc2cnc(-c3ccccn3)cc2n1[C@@H]1CCC[C@H](NC(=O)c2ncc(Cl)s2)C1 [Example 381, 5-chloro-N-((1S,3R)-3-(2-neopentyl-6-(pyridin-2-yl)-1H-imidazo[4,5-c]pyridin-1-yl)cyclohexyl)thiazole-2-carboxamide]
6.30 to 7.00 | ≥ 7.00 | > 6.30 |  | CC(C)Cc1nc2cnc(-n3cc(F)cn3)cc2n1[C@@H]1C[C@@H](O)C[C@H](NC(=O)c2ncc(Cl)s2)C1 [Example 221, 5-chloro-N-((1R,3S,5S)-3-(6-(4-fluoro-1H-pyrazol-1-yl)-2-isobutyl-1H-imidazo[4,5-c]pyridin-1-yl)-5-hydroxycyclohexyl)thiazole-2-carboxamide]
≥ 7.00 | ≥ 7.00 | > 6.30 |  | O=C(N[C@H]1CCC[C@@H](n2c(-c3ccccc3F)nc3cnc(-c4ncccn4)cc32)C1)c1ncc(Cl)s1 [Example 185, 5-chloro-N-((1S,3R)-3-(2-(2-fluorophenyl)-6-(pyrimidin-2-yl)-1H-imidazo[4,5-c]pyridin-1-yl)cyclohexyl)thiazole-2-carboxamide]
 | 6.30 to 7.00 | < 5.30 | E | CC(=O)N1CC(NC(=O)c2ncc(C(F)F)s2)CC(n2c(-c3ccccn3)nc3cnc(-n4ccnn4)cc32)C1 (stereo not drawn) [Example 122, N-(1-acetyl-5-(2-(pyridin-2-yl)-6-(1H-1,2,3-triazol-1-yl)-1H-imidazo[4,5-c]pyridin-1-yl)piperidin-3-yl)-5-(difluoromethyl)thiazole-2-carboxamide]
≥ 7.00 | ≥ 7.00 | > 6.30 |  | O=C(N[C@H]1CCC[C@@H](n2c(-c3ccccc3F)nc3cnc(N4CCCC4CO)cc32)C1)c1ncc(Cl)s1 (stereo partly drawn) [Example 196, 5-chloro-N-((1S,3R)-3-(2-(2-fluorophenyl)-6-(2-(hydroxymethyl)pyrrolidin-1-yl)-1H-imidazo[4,5-c]pyridin-1-yl)cyclohexyl)thiazole-2-carboxamide]
 | < 6.00 | < 5.30 | E | Cn1cc(-c2nc3cnc(-n4ccnn4)cc3n2[C@@H]2CCC[C@H](NC(=O)c3ncc(C(F)F)s3)C2)cn1 [Example 46, 5-(difluoromethyl)-N-((1S,3R)-3-(2-(1-methyl-1H-pyrazol-4-yl)-6-(1H-1,2,3-triazol-1-yl)-1H-imidazo[4,5-c]pyridin-1-yl)cyclohexyl)thiazole-2-carboxamide]
6.30 to 7.00 | ≥ 7.00 | 5.30 to 6.00 |  | O=C(N[C@H]1CCC[C@@H](n2c(-c3ccccc3F)nc3cc(-n4ccnn4)ncc32)C1)c1ncc(C(F)F)s1 [Example 149, 5-(difluoromethyl)-N-((1S,3R)-3-(2-(2-fluorophenyl)-6-(1H-1,2,3-triazol-1-yl)-3H-imidazo[4,5-c]pyridin-3-yl)cyclohexyl)thiazole-2-carboxamide]
6.30 to 7.00 | ≥ 7.00 | 5.30 to 6.00 |  | O=C(N[C@H]1CCC[C@@H](n2c(-c3ccccc3F)nc3cnc(-n4ccnn4)cc32)C1)c1ncc(C(F)F)s1 [Example 38, 5-(difluoromethyl)-N-((1S,3R)-3-(2-(2-fluorophenyl)-6-(1H-1,2,3-triazol-1-yl)-1H-imidazo[4,5-c]pyridin-1-yl)cyclohexyl)thiazole-2-carboxamide]
 | 6.00 to 6.30 | < 5.30 | E | Cc1noc(C)c1-c1nc2cnc(-n3nccn3)cc2n1[C@@H]1CCC[C@H](NC(=O)c2ncc(C(F)F)s2)C1 [Example 47, 5-(difluoromethyl)-N-((1S,3R)-3-(2-(3,5-dimethylisoxazol-4-yl)-6-(2H-1,2,3-triazol-2-yl)-1H-imidazo[4,5-c]pyridin-1-yl)cyclohexyl)thiazole-2-carboxamide]
6.30 to 7.00 | ≥ 7.00 | 5.30 to 6.00 |  | COc1ccc(F)c(-c2nc3cnc(-c4nc[nH]n4)cc3n2[C@@H]2CCC[C@H](NC(=O)c3ccc(Cl)s3)C2)c1 [Example 343, 5-chloro-N-((1S,3R)-3-(2-(2-fluoro-5-methoxyphenyl)-6-(1H-1,2,4-triazol-3-yl)-1H-imidazo[4,5-c]pyridin-1-yl)cyclohexyl)thiophene-2-carboxamide]
